Data reported in the NIST ThermoML archive (doi:10.1021/je200856f).
Numbers after ± are expanded uncertainties.

Experiment: mn = molality of the nth substance listed, in mol/kg
Details: 101 kPa, Liquid; for mass density: Vibrating tube method; for electrical conductivity: Wheatstone bridge equipment

C[N+](C)(C)CCO.[Cl-] [choline chloride] + O
Details	electrical conductivity [S/m]	mass density [kg/m3]	viscosity [mPa·s]
278.15 K, m1 = 0.0293	–	–	1.527 ± 0.048
278.15 K, m1 = 0.054	–	1000.97 ± 0.23	–
278.15 K, m1 = 0.058	–	–	1.551 ± 0.049
278.15 K, m1 = 0.1087	–	1001.95 ± 0.24	–
278.15 K, m1 = 0.1113	–	–	1.515 ± 0.048
278.15 K, m1 = 0.2495	–	–	1.577 ± 0.05
278.15 K, m1 = 0.2554	–	1004.5 ± 0.25	–
278.15 K, m1 = 0.3505	–	–	1.601 ± 0.051
278.15 K, m1 = 0.4956	–	–	1.631 ± 0.052
278.15 K, m1 = 0.5004	–	1008.71 ± 0.27	–
278.15 K, m1 = 0.6473	–	–	1.695 ± 0.054
278.15 K, m1 = 0.6512	–	1011.01 ± 0.28	–
278.15 K, m1 = 0.7484	–	1012.68 ± 0.28	–
278.15 K, m1 = 0.7512	–	–	1.741 ± 0.055
278.15 K, m1 = 0.903	–	–	1.762 ± 0.056
278.15 K, m1 = 1.005	–	–	1.791 ± 0.057
278.15 K, m1 = 1.203	–	1019.28 ± 0.32	1.862 ± 0.059
278.15 K, m1 = 1.504	–	1022.75 ± 0.33	–
278.15 K, m1 = 1.506	–	–	1.936 ± 0.061
278.15 K, m1 = 1.99	–	–	2.077 ± 0.066
278.15 K, m1 = 1.992	–	1028.85 ± 0.37	–
288.15 K, m1 = 0.0293	–	–	1.151 ± 0.036
288.15 K, m1 = 0.054	–	1000.03 ± 0.23	–
288.15 K, m1 = 0.058	–	–	1.17 ± 0.037
288.15 K, m1 = 0.1087	–	1000.95 ± 0.23	–
288.15 K, m1 = 0.1113	–	–	1.164 ± 0.037
288.15 K, m1 = 0.2495	–	–	1.192 ± 0.038
288.15 K, m1 = 0.2554	–	1003.33 ± 0.25	–
288.15 K, m1 = 0.3505	–	–	1.211 ± 0.038
288.15 K, m1 = 0.4956	–	–	1.237 ± 0.039
288.15 K, m1 = 0.5004	–	1007.27 ± 0.26	–
288.15 K, m1 = 0.6473	–	–	1.287 ± 0.041
288.15 K, m1 = 0.6512	–	1009.43 ± 0.27	–
288.15 K, m1 = 0.7484	–	1011 ± 0.28	–
288.15 K, m1 = 0.7512	–	–	1.323 ± 0.042
288.15 K, m1 = 0.903	–	–	1.342 ± 0.043
288.15 K, m1 = 1.005	–	–	1.364 ± 0.043
288.15 K, m1 = 1.203	–	1017.23 ± 0.31	1.417 ± 0.045
288.15 K, m1 = 1.504	–	1020.5 ± 0.33	–
288.15 K, m1 = 1.506	–	–	1.476 ± 0.047
288.15 K, m1 = 1.99	–	–	1.587 ± 0.05
288.15 K, m1 = 1.992	–	1026.31 ± 0.36	–
298.15 K, m1 = 0.0272	0.279 ± 0.003	–	–
298.15 K, m1 = 0.0293	–	–	0.875 ± 0.028
298.15 K, m1 = 0.05	0.492 ± 0.005	–	–
298.15 K, m1 = 0.054	–	997.931 ± 0.23	–
298.15 K, m1 = 0.058	–	–	0.888 ± 0.028
298.15 K, m1 = 0.1	0.919 ± 0.01	–	–
298.15 K, m1 = 0.1087	–	998.81 ± 0.23	–
298.15 K, m1 = 0.1113	–	–	0.903 ± 0.029
298.15 K, m1 = 0.2495	–	–	0.908 ± 0.029
298.15 K, m1 = 0.25	2.03 ± 0.02	–	–
298.15 K, m1 = 0.2554	–	1001.09 ± 0.24	–
298.15 K, m1 = 0.35	2.67 ± 0.03	–	–
298.15 K, m1 = 0.3505	–	–	0.928 ± 0.029
298.15 K, m1 = 0.4956	–	–	0.95 ± 0.03
298.15 K, m1 = 0.5	3.55 ± 0.04	–	–
298.15 K, m1 = 0.5004	–	1004.84 ± 0.26	–
298.15 K, m1 = 0.6473	–	–	0.984 ± 0.031
298.15 K, m1 = 0.65	4.37 ± 0.05	–	–
298.15 K, m1 = 0.6512	–	1006.92 ± 0.27	–
298.15 K, m1 = 0.7484	–	1008.42 ± 0.28	–
298.15 K, m1 = 0.75	4.79 ± 0.05	–	–
298.15 K, m1 = 0.7512	–	–	1.009 ± 0.032
298.15 K, m1 = 0.9	5.44 ± 0.06	–	–
298.15 K, m1 = 0.903	–	–	1.023 ± 0.033
298.15 K, m1 = 1.005	–	–	1.043 ± 0.033
298.15 K, m1 = 1.203	–	1014.4 ± 0.31	1.082 ± 0.034
298.15 K, m1 = 1.205	6.54 ± 0.07	–	–
298.15 K, m1 = 1.504	–	1017.56 ± 0.33	–
298.15 K, m1 = 1.505	7.43 ± 0.08	–	–
298.15 K, m1 = 1.506	–	–	1.127 ± 0.036
298.15 K, m1 = 1.99	–	–	1.234 ± 0.039
298.15 K, m1 = 1.992	–	1023.16 ± 0.36	–
298.15 K, m1 = 1.994	8.53 ± 0.09	–	–
308.15 K, m1 = 0.0293	–	–	0.715 ± 0.023
308.15 K, m1 = 0.054	–	994.893 ± 0.23	–
308.15 K, m1 = 0.058	–	–	0.724 ± 0.023
308.15 K, m1 = 0.1087	–	995.745 ± 0.23	–
308.15 K, m1 = 0.1113	–	–	0.732 ± 0.023
308.15 K, m1 = 0.2495	–	–	0.746 ± 0.024
308.15 K, m1 = 0.2554	–	997.961 ± 0.24	–
308.15 K, m1 = 0.3505	–	–	0.757 ± 0.024
308.15 K, m1 = 0.4956	–	–	0.774 ± 0.025
308.15 K, m1 = 0.5004	–	1001.61 ± 0.26	–
308.15 K, m1 = 0.6473	–	–	0.811 ± 0.026
308.15 K, m1 = 0.6512	–	1003.63 ± 0.27	–
308.15 K, m1 = 0.7484	–	1005.09 ± 0.28	–
308.15 K, m1 = 0.7512	–	–	0.826 ± 0.026
308.15 K, m1 = 0.903	–	–	0.835 ± 0.027
308.15 K, m1 = 1.005	–	–	0.854 ± 0.027
308.15 K, m1 = 1.203	–	1010.92 ± 0.31	0.884 ± 0.028
308.15 K, m1 = 1.504	–	1014 ± 0.32	–
308.15 K, m1 = 1.506	–	–	0.921 ± 0.029
308.15 K, m1 = 1.99	–	–	1.007 ± 0.032
308.15 K, m1 = 1.992	–	1019.47 ± 0.35	–
318.15 K, m1 = 0.0293	–	–	0.633 ± 0.02
318.15 K, m1 = 0.054	–	991.063 ± 0.23	–
318.15 K, m1 = 0.058	–	–	0.61 ± 0.019
318.15 K, m1 = 0.1087	–	991.902 ± 0.23	–
318.15 K, m1 = 0.1113	–	–	0.623 ± 0.02
318.15 K, m1 = 0.2495	–	–	0.638 ± 0.02
318.15 K, m1 = 0.2554	–	994.085 ± 0.24	–
318.15 K, m1 = 0.3505	–	–	0.646 ± 0.021
318.15 K, m1 = 0.4956	–	–	0.656 ± 0.021
318.15 K, m1 = 0.5004	–	997.683 ± 0.26	–
318.15 K, m1 = 0.6473	–	–	0.694 ± 0.022
318.15 K, m1 = 0.6512	–	999.672 ± 0.27	–
318.15 K, m1 = 0.7484	–	1001.11 ± 0.27	–
318.15 K, m1 = 0.7512	–	–	0.69 ± 0.022
318.15 K, m1 = 0.903	–	–	0.702 ± 0.022
318.15 K, m1 = 1.005	–	–	0.721 ± 0.023
318.15 K, m1 = 1.203	–	1006.86 ± 0.3	0.747 ± 0.024
318.15 K, m1 = 1.504	–	1009.9 ± 0.32	–
318.15 K, m1 = 1.506	–	–	0.776 ± 0.025
318.15 K, m1 = 1.99	–	–	0.843 ± 0.027
318.15 K, m1 = 1.992	–	1015.31 ± 0.35	–
